The source of these data is patent publication US10414779B2, “Fused [1,2]imidazo[4,5-C] ring compounds substituted with guanidino groups” (3M INNOVATIVE PROPERTIES COMPANY, priority 2016, dated 2019).

Structures can show the parent of a compound that is named as a salt.

The test system of experiment [1] is Human peripheral blood mononuclear cells (PBMC). The experiment can be described thus: Cytokine induction in human cells (PBMC), IFN-gamma by multiplex bead assay. The format is cell-based. The following applies: 21-24 hrs, lowest concentration inducing cytokine at least 2× negative control, tested at 10, 1, 0.1, 0.01, 0.001, 0.0001 micromolar. Here is the method: (§1) Cytokine Induction in Human Cells
(§2) Whole blood was obtained from healthy human donors and collected by venipuncture into vacutainer tubes or syringes containing EDTA. Human peripheral blood mononuclear cells (PBMC) were purified from the whole blood by density gradient centrifugation. Histopaque 1077 (15 mL, Sigma, St. Louis, Mo.) was transferred to 6×50 mL sterile polypropylene conical tubes. The Histopaque was overlayed with 15-25 mL of blood diluted 1:2 in Hank's Balanced Salts Solution (HBSS) (Gibco, Life Technology, Grand Island N.Y.). The tubes were then centrifuged at 1370 rpm for 30 minutes at 20° C., with no brake (400×g, GH 3.8A Rotor).
(§3) The interface (buffy coat) containing the PBMC was collected and placed in a new sterile 50 mL conical polypropylene centrifuge tube. […]
(§4) The number of viable cells were determined by counting with a Miltenyi FACS instrument (Miltenyi Biotec Inc., San Diego, Calif.) or by using a hemacytometer. […] Ten microliters of the diluted cells were then applied to the hemacytometer, and the number of viable PBMC were determined by microscopy. […]
(§5) IFN-alpha cytokine levels (pg/mL) were measured by ELISA (human IFN-α, pan specific, Mabtech, Cinncinnati, Ohio), IFN-gamma, TNF-alpha, and IP-10 cytokine levels (pg/mL) were measured by multiplex bead assay (magnetic beads, R & D Systems Minneapolis, Minn.) according to the manufacturer's instructions. […]

Experiment [2] shares this test system. The experiment can be described thus: Cytokine induction in human cells (PBMC), IFN-alpha by ELISA. It is filed as cell-based. As to conditions: 21-24 hrs, lowest concentration inducing cytokine at least 2× negative control, tested at 10, 1, 0.1, 0.01, 0.001, 0.0001 micromolar. The method, then: as §1, §2, §3, §4, §5
(An ELISA detects its analyte on a solid surface through an enzyme-linked reagent.)

With `N=C(N)NCCC[C@H]1COCc2nc3c(N)nc4ccccc4c3n21` [Example 1, (11S)-1-{3-[6-amino-10,11-dihydro-8H-[1,4]oxazino[4′,3′:1,2]imidazo[4,5-c]quinolin-11-yl]propyl}guanidine dihydrochloride], the “MEC to Induce Cytokine IFN-gamma” value in experiment [1] worked out at 1.0 µM. Moreover, the “MEC to Induce Cytokine IFN-alpha” value in experiment [2] stood at 1.0 µM.
